Results on seven compounds are retold here after article PMC10682194, “Structural insights into ligand recognition and selectivity of the human hydroxycarboxylic acid receptor HCAR2” (Cell Discovery, 2023).

pEC50, pKd: −log10 of the molar value. Read-outs that look alike come from different tables or passages of the source.

The test system of data set [1] is HCAR2. Particulars: cited from earlier work.
Data set [2] relates to HCAR2. Details: method as in PMID 19349687. Particulars: HCAR2 agonist; cited from earlier work.
The conditions of data set [3]: rat, compared to niacin; cited from earlier work.
For data set [4] the following is noted: dog, compared to niacin; cited from earlier work.
Data set [5] concerns the target T1, wild-type HCAR2 (Homo sapiens, UniProt Q8TDS4).
T1 construct: expressed in transfected cells; host or cells: HEK293 cells (ATCC CRL-1573)
In words: SPR binding affinity, wild-type receptor. The method, then: Varying concentrations of agonist diluted in running buffer were injected as analytes for 100 s, as the period of association. Subsequently, the running buffer was alternatively perfused over the chip to allow the bound agonist to undergo a 50 s period of disassociation. Sensorgrams were recorded in real-time and analyzed in the Biacore X100 system for the calculation of binding affinity (KD).
(In general: In SPR one partner is held on a chip, and binding of the other changes the refractive index at the surface.)

The subject of data set [6] is HCAR2 mutants at positions 86, 91, 103, 107, 176, and 178. Kind of data set: Gi/o-cAMP assay, HCAR2 residues mutated to the allelic residues in HCAR3. Format: cell-based, human. Conditions: six HCAR2 residues mutated to HCAR3 residues. Here is the method: (§1) The Gi/o-cAMP assay was performed as follows. […] Data were analyzed with GraphPad Prism 9.0. The experiments were performed in triplicate.
In general terms: Changes in cAMP serve as a functional read-out for many G protein-coupled receptors.

The subject of data set [7] is HCAR3 mutants at positions 86, 91, 103, 107, 176, and 178. In words: Gi/o-cAMP assay, reverse mutations in HCAR3. Format: cell-based, human. Conditions: reverse mutations of the six residues in HCAR3. Here is the method: as §1
For data set [8], the target named is HCAR3 (Homo sapiens, UniProt P49019). Particulars: HCAR2 natural ligands on HCAR3; cited from earlier work.
HCAR3, sequence (P49019 whole entry): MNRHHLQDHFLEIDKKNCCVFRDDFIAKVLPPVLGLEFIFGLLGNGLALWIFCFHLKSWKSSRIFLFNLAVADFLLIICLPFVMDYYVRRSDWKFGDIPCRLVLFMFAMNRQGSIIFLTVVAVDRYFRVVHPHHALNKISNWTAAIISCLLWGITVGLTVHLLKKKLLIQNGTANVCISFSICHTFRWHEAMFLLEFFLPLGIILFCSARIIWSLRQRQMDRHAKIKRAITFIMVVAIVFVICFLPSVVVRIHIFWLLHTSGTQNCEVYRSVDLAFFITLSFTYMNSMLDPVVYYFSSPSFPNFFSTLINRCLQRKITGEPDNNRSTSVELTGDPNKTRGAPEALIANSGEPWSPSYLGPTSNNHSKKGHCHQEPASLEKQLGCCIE

T1 sequence (Q8TDS4 whole entry): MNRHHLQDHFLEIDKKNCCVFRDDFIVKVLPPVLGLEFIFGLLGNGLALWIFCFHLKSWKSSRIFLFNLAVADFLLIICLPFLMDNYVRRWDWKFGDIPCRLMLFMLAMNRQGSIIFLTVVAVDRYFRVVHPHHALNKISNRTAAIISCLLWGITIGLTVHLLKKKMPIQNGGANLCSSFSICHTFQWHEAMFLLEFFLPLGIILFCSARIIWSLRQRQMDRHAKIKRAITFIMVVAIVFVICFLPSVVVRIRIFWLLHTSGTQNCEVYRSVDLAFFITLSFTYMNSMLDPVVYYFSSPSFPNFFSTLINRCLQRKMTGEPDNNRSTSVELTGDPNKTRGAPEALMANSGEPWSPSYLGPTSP

In the case of `CCCCCC(O)CC(=O)O` (stereo not drawn) [3-hydroxyoctanoic acid], the “activation of HCAR2” value in data set [1] (natural ligand of HCAR3 tested on HCAR2) is reported as “not activated”.

In the case of `C1Cc2[nH]nc(-c3nn[nH]n3)c2C1` [MK-0354], the β-arrestin activation result in data set [2] is reported as “weak”.

On to `CC(C)(Cc1nc(-c2ccc(O)cn2)no1)C(=O)NC1=C(C(=O)O)CCCC1` [MK-6892], for which the flushing effect result in data set [3] and in data set [4] was “significantly relieved” each time.

Broadly, the pEC50 is the EC50 on a negative log10 scale, so that one unit is a factor of ten. A word on the pKd: it is the Kd on a negative log10 scale, so that one unit is a factor of ten. Read a low pKd as a large Kd. Regarding `Cc1cnc(C(=O)O)c[n+]1[O-]` [acipimox], in data set [1] (agonist of HCAR2), the pEC50 is 5.22 to 5.59. The negative logarithm of the Kd (pKd) in data set [5] was 6.37. In addition, in data set [6], the “effect of mutations on agonist activity in HCAR2” value is reported as “markedly reduced”. For the same compound, the “agonistic activity compared to wild-type HCAR3” value in data set [7] is “increased”.

Turning to `CCCC(=O)O` [butyrate], in data set [8], the “activity toward HCAR3” value is “no activity”.

In the case of `NC(=O)c1cccnc1` [nicotinamide], the “activity toward HCAR2” value in data set [1] (carboxyl group of niacin replaced with an amide group) is “no longer active”.

For `CC(O)CC(=O)O` (stereo not drawn) [β-OHB, β-hydroxybutyrate], the “potency for HCAR2 relative to butyrate” value in data set [1] (endogenous ligands) is on record as “higher potency”. Further, in data set [8], the “activity toward HCAR3” value is given as “no activity”.
